{
  "source": "patent US20170182090A1",
  "about": "“Sulfate Salt Solution Laxative Compositions and Methods of Use Thereof” (Braintree Laboratories, Inc., priority 2014, published 2017)",
  "key": {"constipation": {"system": "constipation", "details": "in vivo; cited from earlier work"}, "normal volunteers [1]": {"system": "normal volunteers", "experiment": "Stool electrolyte output and balance, Example 1", "type": "in vivo, human", "details": "bisacodyl 10 mg", "method": "(§1) Efficacy was assessed via quantitative measurements of stool weight, bowel movement frequency and time to first BM. All stools were collected, weighed and subsequently analyzed for water and electrolyte composition.\n(§2) Laxative related adverse events were assessed via subject completion of a study specific questionnaire. Specifically, subjects rated their experience with respect to abdominal cramping, abdominal bloating, abdominal pain, gas, nausea, and vomiting. Stool was analyzed for water and electrolyte composition.\nStools collected from study subjects were analyzed for sodium, potassium and sulfate. The data for the 80 mmol sulfate salt formulation and 10 mg bisacodyl are discussed here. The total electrolyte content of the stool was compared with the total electrolyte quantity ingested from the test preparations.\nThe 80 mmol sulfate salt formulation was administered initially as a formula with a 1:1 sodium to potassium ratio on a molar basis (1 study subject; DC). Based on the stool analysis results from this subject (see below) the formulation was modified to a 3:1 sodium to potassium ratio for the remaining 5 study subjects. Stool electrolyte balance results are summarized below in Tables 6 and 7."}, "normal volunteers [2]": {"system": "normal volunteers", "details": "bisacodyl 20 mg, n=11, cited from earlier work"}, "normal volunteers [3]": {"system": "normal volunteers", "experiment": "Adverse events and symptoms, Example 1", "type": "in vivo, human", "details": "bisacodyl 10 mg single dose", "method": "as §2"}, "normal volunteers [4]": {"system": "normal volunteers", "experiment": "Single dose laxative study in normal volunteers (Example 1, Study 008-211): stool output, BM frequency, time to first BM, stool water", "type": "in vivo, human", "method": "This single center study evaluated sulfate salt compositions containing 43.8 millimoles (mmol) sulfate salts (4.2 g total sulfate) or 80 mmol sulfate salts (7.7 g total sulfate) as compared to 10 mg bisacodyl for efficacy to induce a rapid, controlled bowel movement without significant gains or losses of electrolytes. Normal volunteers were given a single dose of laxative in an in-patient setting during which all stool and urine were collected for 24 hours after laxative administration. Efficacy was based on total stool output, bowel movement frequency and time to first bowel movement (BM). A time to first BM of less than three hours was considered ideal. Stool was analyzed to determine the gain or loss of electrolytes. Safety was assessed through the collection of adverse event data and analysis of urine electrolyte composition.\nNormal male and female volunteers in this single center study were enrolled to receive a single dose of a sulfate laxative formulations or bisacodyl in an open-label, non-randomized fashion.\nEnrolled study subjects received a single dose of a formulation of sulfate salts (dissolved in 120 ml water) and separately, 10 mg bisacodyl, in an open-label, non-randomized fashion. The sulfate preparations, shown below, were compounded by the investigator.\nAfter an eight hour (overnight) fast, study subjects ingested either a single dose of sulfate laxative (containing sodium sulfate and potassium sulfate) or, on a different day, bisacodyl. Sulfate was initially given with a 1:1 molar ratio sodium to potassium at a dose of 43.8 mmole sulfate salts (4.2 g total sulfate) sulfate to three study subjects. The dose was later increased to 80 mmole sulfate salts (7.7 g total sulfate) in one study subject. The 80 mmol sulfate salt formulation was then changed to a 3:1 sodium to potassium molar ratio for the final five study subjects. Bisacodyl was given at a dose of 10 mg.\nStool and urine were collected for 24 hours following laxative ingestion.\nas §1"}, "[5]": {"details": "bisacodyl 10 mg single dose, mean, n=7"}, "[6]": {"details": "bisacodyl 10 mg single dose, n=7"}, "[7]": {"details": "bisacodyl 10 mg, 24 hours following laxative ingestion"}},
  "note": "Read-outs that look alike come from different tables or passages of the source.",
  "data": [
    {"smiles": "C=CCN1CC[C@]23c4c5ccc(O)c4O[C@H]2[C@@H](OCCOCCOCCOCCOCCOCCOCCOC)CC[C@@]3(O)[C@H]1C5.O=C(O)C(=O)O", "note": "[Movantik]", "values": [
      {"measurement": "success rate", "setting": "constipation", "value": "approximately 45%"}
    ]},
    {"smiles": "CCCCC(F)(F)[C@@]1(O)CC[C@H]2[C@@H](CC(=O)[C@@H]2CCCCCCC(=O)O)O1", "note": "[Amitiza]", "values": [
      {"measurement": "success rate", "setting": "constipation", "value": 30, "unit": "%"}
    ]},
    {"smiles": "C[N+]1(CC2CC2)CC[C@]23c4c5ccc(O)c4O[C@H]2C(=O)CC[C@@]3(O)[C@H]1C5", "note": "(stereo partly shown) [Relistor]", "values": [
      {"measurement": "success rate", "setting": "constipation", "value": 60, "unit": "%"}
    ]},
    {"smiles": "CC(=O)Oc1ccc(C(c2ccc(OC(C)=O)cc2)c2ccccn2)cc1", "note": "[Bisacodyl]", "values": [
      {"measurement": "potassium loss", "setting": "normal volunteers [1]", "value": "about 2 grams"},
      {"measurement": "sodium losses", "setting": "normal volunteers [1]", "value": 1.2, "unit": "grams"},
      {"measurement": "BM Frequency", "setting": "normal volunteers [2]; mean", "value": "5.4 #/12hrs"},
      {"measurement": "Stool Output", "setting": "normal volunteers [2]; mean", "value": 757, "unit": "g/12hrs"},
      {"measurement": "Time to first BM", "setting": "normal volunteers [2]; mean", "value": 3.2, "unit": "h"},
      {"measurement": "# with BM <3 hrs, number", "setting": "normal volunteers [2]", "value": 5},
      {"measurement": "# with BM <3 hrs, percent", "setting": "normal volunteers [2]", "value": "(45%)"},
      {"measurement": "# with BM <3 hrs, percent", "setting": "normal volunteers [2]; listed as bisacodyl", "value": 45, "unit": "%"},
      {"measurement": "adverse events, gastrointestinal symptoms", "setting": "normal volunteers [3]", "value": "one bisacodyl volunteer reported severe cramping"},
      {"measurement": "Stool Water", "setting": "normal volunteers [4]; bisacodyl 10 mg single dose, mean (SD), n=7", "value": "85.8% (2.4)"},
      {"measurement": "BM Frequency", "setting": "normal volunteers [4]; [5]", "value": "2.9 #/12 hrs"},
      {"measurement": "Stool Output", "setting": "normal volunteers [4]; [5]", "value": 681, "unit": "g/12 hrs"},
      {"measurement": "Time to first BM", "setting": "normal volunteers [4]; [5]", "value": 4.4, "unit": "h"},
      {"measurement": "Time to first BM", "setting": "normal volunteers [4]; bisacodyl 10 mg single dose, mean, n=7, listed as bisacodyl", "value": "about 5 hrs"},
      {"measurement": "Subjects with BM <3 hrs, number", "setting": "normal volunteers [4]; [6]", "value": 1},
      {"measurement": "Subjects with BM <3 hrs, percent", "setting": "normal volunteers [4]; [6]", "value": "(14%)"},
      {"measurement": "Subjects with BM <3 hrs, percent", "setting": "normal volunteers [4]; bisacodyl 10 mg single dose, n=7, listed as bisacodyl", "value": 14, "unit": "%"},
      {"measurement": "bowel movements, average", "setting": "normal volunteers [4]; [7]", "value": "about 3"},
      {"measurement": "stool, average", "setting": "normal volunteers [4]; [7]", "value": "~700", "unit": "grams"}
    ]}
  ]
}
